Experimental data published in US20260365991A1, “COMPOUNDS FOR STABILIZING PEPTIDES IN BIOLOGICAL SAMPLES” (Roche Diagnostics Operations, Inc., priority 2023, published 2026).

Columns and labels:
gastrin-17 [1] = assay: Gastrin-17 stabilization by sulfone compounds in horse serum (Example 3); assay type: biochemical, human gastrin-17 (GAST_HUMAN) in horse serum; settings: for ability to stabilize gastrin-17 in serum / stabilizing effect on gastrin-17 compared with DMSO: 5% [v/v], horse serum, room temperature, 5 h and 24 h
Method: Gastrin-17 (GAST_HUMAN(77-92)[Pyr-77]amid) was solved in horse serum with a concentration of 2.0 mg/ml and diluted to 0.22 mg/mL.
This solution was spiked respectively to reach a concentration of gastrin-17 of 0.1 mg/ml in (a) horse serum with added 5% [v/v]H2O; (b) horse serum with added 5% [v/v] DMSO (CAS: 67-68-5); (c) horse serum added 5% [v/v] Sulfolane (CAS: 126-33-0); d) horse serum with added 5% [v/v]trimethylene sulfone (CAS: 5687-92-3); e) horse serum with added 5% [v/v]1,1-dioxoisothiazolidine (CAS: 5908-62-3); f) horse serum with added 5% [v/v]1,4-butanesultone (CAS: 1633-83-6); g) horse serum with added 5% [v/v]tetrahydro-2H-thiopyran-4-ol 1,1-dioxide (CAS: 194152-05-1); h) horse serum with added 5% [v/v]2-methyltetrahydrothiophene 1,1-dioxide (CAS: 1003-46-9); i) horse serum with added 5% [v/v]ethylmethylsulfone (CAS: 594-43-4). The samples were then stored/incubated at room temperature. Samples were taken after 0 h, 5 h and 24 h. The further experiment was performed as described in Example 1.

[2] = cited from earlier work; for stability against oxidation compared with DMSO: Wasmus S and Vielstich W, Electrochimica Acta 1993
gastrin-17 [3] = assay: Gastrin-17 stability in horse serum with 5% additive (Example 1, HPLC-MS); assay type: biochemical, human gastrin-17 (GAST_HUMAN) in horse serum; settings: for protection ability on gastrin-17: room temperature, 0 h, 5 h, 23 h
Method: (§1) Gastrin-17 (GAST_HUMAN(77-92)[Pyr-77]amid) and MS Qual/Quant QC-Mix (Mat. No.: MSQC2, Sigma Aldrich, a peptide mix comprising peptides A, B and C as referred to herein) was solved in horse serum with a concentration of 2.0 mg/ml and diluted to 0.22 mg/mL.
(§2) This solution was spiked respectively to reach a final peptide concentration of 0.1 mg/ml in (a) horse serum with added 5% [v/v]H2O; (b) horse serum with added 5% [v/v] DMSO (CAS: 67-68-5); (c) horse serum with added 5% [v/v] Sulfolane (CAS: 126-33-0). The samples were stored at room temperature. Samples were taken at three times after spiking (0 h, 5 h and 23 h) and centrifuged with a Microcon-10 filter (Ultracel PL-10, Regenerated Cellulose 10,000 NMWL) for 10 min at 4 °C and 10,000 rpm. Afterwards the filtrate was separated by a liquid chromatography (HPLC) coupled with MS detector (QTOF Premier, Waters). The separation was done by a reverse phase liquid chromatography (Vydac 218TP C18, 5 μm, 2.1×150 mm, column temperature 50 °C) with a linear gradient to 100% of eluent B over 17 minutes. The eluent A was water with 0.025% [v/v]trifluoroacetic acid and eluent B was acetonitrile with 0.023% [v/v]trifluoroacetic acid. The quantification was done by using […]=1049.9 Da for Gastrin-17, [M+2H]^2+=671.8 Da for peptid A, [M+2H]^2+=751.4 Da for peptid B and [M+2H]^2+=802.9 Da for peptid C. Peptid A, B and C are exemplary peptides contained in the peptid-Mix MS Qual/Quant QC-Mix (Mat. No.: MSQC2, Sigma Aldrich). The peptide mix MS Qual/Quant QC-Mix (Mat. No.: MSQC2, Sigma Aldrich) contained peptides of a length of 4 to 26 amino acids.

peptides A, B and C [4] = assay: Stability of peptides A, B and C in horse serum with 5% additive (Example 1, HPLC-MS); assay type: biochemical; settings: for protection ability on different peptides (A, B, C): room temperature, 0 h, 5 h, 23 h
Method: as §1, §2

gastrin-17 [5] = assay: Concentration dependence of gastrin-17 stabilization in horse serum (Example 2); assay type: biochemical, human gastrin-17 (GAST_HUMAN) in horse serum; settings: for concentration dependence of stabilization, gastrin-17 / stabilization of gastrin-17: 1.25%, 2.5% and 5% (v/v); for stabilization of gastrin-17: room temperature, 0 h and 5 h
Method: (§3) Gastrin-17 (GAST_HUMAN(77-92)[Pyr-77]amid) and MS Qual/Quant QC-Mix (Mat. No.: MSQC2, Sigma Aldrich; comprises peptides A, B and C) was solved in horse serum with a concentration of 2.0 mg/ml and diluted to 0.22 mg/mL.
(§4) This solution was spiked respectively to reach a concentration of 0.1 mg/ml in (a) horse serum with added 5% [v/v] DMSO (CAS: 67-68-5); (b) horse serum with added 5% [v/v] Sulfolane (CAS: 126-33-0); c) horse serum with added 2.5% [v/v] DMSO (CAS: 67-68-5); d) horse serum with added 2.5% [v/v] Sulfolane (CAS: 126-33-0); e) horse serum with added 1.25% [v/v] DMSO (CAS: 67-68-5); f) horse serum with added 1.25% [v/v] Sulfolane (CAS: 126-33-0); The samples were stored at room temperature. A sample was taken 0 h and 5 h after spiking. The further experiment was conducted as described in Example 1.

peptides A, B and C [6] = assay: Concentration dependence of stabilization of peptides A, B and C in horse serum (Example 2); assay type: biochemical; settings: for concentration dependence of stabilization, peptides A, B and C / stabilization of peptides A, B and C: 1.25%, 2.5% and 5% (v/v); for stabilization of peptides A, B and C: room temperature, 0 h and 5 h
Method: as §3, §4

[7] = 5% [v/v], especially after longer incubation (23 h)

For O=S1(=O)CCCN1 [1,1-dioxoisothiazolidine], the “ability to stabilize gastrin-17 in serum” value (gastrin-17 [1]) is given as “have the ability to stabilize peptides” and the “stability against oxidation compared with DMSO” value [2] is given as “more stable against oxidation than DMSO”.
For O=S1(=O)CCCCO1 [1,4-butanesultone], the “ability to stabilize gastrin-17 in serum” value (gastrin-17 [1]) is given as “have the ability to stabilize peptides”, the “stabilizing effect on gastrin-17 compared with DMSO” value (gastrin-17 [1]) is given as “superior to the DMSO stabilizing effect” and the “stability against oxidation compared with DMSO” value [2] is given as “more stable against oxidation than DMSO”.
In the case of C[S+](C)[O-] [DMSO, dimethylsulfoxid, reference compound], the “protection ability on gastrin-17” value (gastrin-17 [3]; 5% [v/v]) is reported as “both exhibit protection ability”, the “protection ability on different peptides (A, B, C)” value (peptides A, B and C [4]; 5% [v/v]) is reported as “both exhibit protection ability” and the “concentration dependence of stabilization, gastrin-17” value (gastrin-17 [5]; 5 h) is reported as “stabilization increased with the concentration”. The “stabilization of gastrin-17” value (gastrin-17 [5]) was “stabilized each of the peptides”, the “concentration dependence of stabilization, peptides A, B and C” value (peptides A, B and C [6]; 5 h) was “stabilization increased with the concentration” and the “stabilization of peptides A, B and C” value (peptides A, B and C [6]) was “stabilized each of the peptides”. For the same molecule, the oxidation instability ([2]; background statement) was “rather instable”.
In the case of O=S1(=O)CCCC1 [Sulfolane], the “protection of gastrin-17 compared with DMSO” value (gastrin-17 [3]; [7]) is reported as “exceeds the DMSO protection outcome”, the “protection ability on gastrin-17” value (gastrin-17 [3]; 5% [v/v]) is reported as “both exhibit protection ability” and the “signal stability over time (MassSpec peak area), gastrin-17” value (gastrin-17 [3]; FIG. 1, 5% [v/v] vs no additive and 5% DMSO) is reported as “better signal stability over time”. The “protection of peptides A, B, C compared with DMSO” value (peptides A, B and C [4]; [7]) was “exceeds the DMSO protection outcome”, the “protection ability on different peptides (A, B, C)” value (peptides A, B and C [4]; 5% [v/v]) was “both exhibit protection ability” and the “signal stability over time (MassSpec peak area), peptides A, B and C” value (peptides A, B and C [4]; FIG. 2, 5% [v/v] vs no additive and 5% DMSO) was “better signal stability over time”. The “concentration dependence of stabilization, gastrin-17” value (gastrin-17 [5]; 5 h) was “stabilization increased with the concentration”, the “stabilization of gastrin-17” value (gastrin-17 [5]) was “stabilized each of the peptides” and the “overall stabilization compared with DMSO, gastrin-17” value (gastrin-17 [5]; 1.25-5% (v/v), 5 h) was “overall better peptide stabilization ability”. For the same molecule, the “stability improvement (MassSpec peak area)” value (gastrin-17 [5]; FIG. 3, 5% vs 2.5% and 1.25% sulfolane or DMSO, legend says only "Peptide") was “improves stability best”, the “concentration dependence of stabilization, peptides A, B and C” value (peptides A, B and C [6]; 5 h) was “stabilization increased with the concentration” and the “stabilization of peptides A, B and C” value (peptides A, B and C [6]) was “stabilized each of the peptides”. The “overall stabilization compared with DMSO, peptides A, B and C” value (peptides A, B and C [6]; 1.25-5% (v/v), 5 h) was “overall better peptide stabilization ability”, the “ability to stabilize gastrin-17 in serum” value (gastrin-17 [1]) was “have the ability to stabilize peptides” and the “stabilizing effect on gastrin-17 compared with DMSO” value (gastrin-17 [1]) was “superior to the DMSO stabilizing effect”. The “protection of gastrin peptide over a longer period compared with DMSO” value (gastrin-17 [1]; ca. 24 h, similar concentrations like DMSO, serum derived degradation) was “can protect the Gastrin Peptide better over a longer period”, the “stability against oxidation compared with DMSO” value [2] was “more stable against oxidation than DMSO” and the “stability of Sulfolane compared with DMSO based upon oxidation” value ([2]; no experiment described at the place) was “more stable than DMSO based upon oxidation”.
In the case of CCS(C)(=O)=O [ethylmethylsulfone], the “ability to stabilize gastrin-17 in serum” value (gastrin-17 [1]) is given as “have the ability to stabilize peptides”, the “stabilizing effect on gastrin-17 compared with DMSO” value (gastrin-17 [1]) is given as “superior to the DMSO stabilizing effect” and the “stability against oxidation compared with DMSO” value [2] is given as “more stable against oxidation than DMSO”.
In the case of CC1CCCS1(=O)=O (stereo not drawn) [methyltetrahydrothiophene 1,1-dioxide, 2-methyltetrahydrothiophene 1,1-dioxide], the “ability to stabilize gastrin-17 in serum” value (gastrin-17 [1]) is listed as “have the ability to stabilize peptides”, the “stabilizing effect on gastrin-17 compared with DMSO” value (gastrin-17 [1]) is listed as “superior to the DMSO stabilizing effect” and the “stability against oxidation compared with DMSO” value [2] is listed as “more stable against oxidation than DMSO”.
For O=S1(=O)CCC(O)CC1 [tetrahydro-2H-thiopyran-4-ol 1,1-dioxide], the “ability to stabilize gastrin-17 in serum” value (gastrin-17 [1]) is listed as “have the ability to stabilize peptides”, the “stabilizing effect on gastrin-17 compared with DMSO” value (gastrin-17 [1]) is listed as “superior to the DMSO stabilizing effect” and the “stability against oxidation compared with DMSO” value [2] is listed as “more stable against oxidation than DMSO”.
For O=S1(=O)CCC1 [trimethylene sulfone], the “ability to stabilize gastrin-17 in serum” value (gastrin-17 [1]) is listed as “have the ability to stabilize peptides”, the “stabilizing effect on gastrin-17 compared with DMSO” value (gastrin-17 [1]) is listed as “superior to the DMSO stabilizing effect” and the “stability against oxidation compared with DMSO” value [2] is listed as “more stable against oxidation than DMSO”.
